Measured values taken from ChEMBL document CHEMBL1201862, “PubChem BioAssay data set” (2004).
Calls of active or inactive are those of the source.

Tests used:
[1] = T. cruzi growth inhibition in host cells, dose response, cell-based, plate reader, dry powder, set 2 (AID 652275); format: functional
[2] = mouse embryonic fibroblast toxicity – cell-based, plate reader, dry powder, set 2, cytotoxicity control, dose response (AID 652280); format: functional; conditions: NIH3T3
[3] = target: G-protein coupled receptor 183 (Homo sapiens, UniProt P32249); test: SAR confirmation of small molecule antagonists of the EBI2 receptor via a luminescent beta-arrestin assa.; format: functional
[4] = target: Kallikrein-7 (Homo sapiens, UniProt P49862); test: Fluorescence Intensity-based biochemical primary high throughput dose response assay to identify activators of kallikrein-7 (K7) zymogen.
[5] = target: Ephrin type-A receptor 4 (Mus musculus, UniProt Q03137); test: EphA4 ligand-binding antagonists – biochemical, colorimetric, mouse EphA4, primary screen (AID 689); format: functional
[6] = target: T1, Cytochrome P450 1A2 (Homo sapiens, UniProt P05177);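 further: PubChem cytochrome P450 panel assay, CYP1A2 panel member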
T1 sequence (P05177 whole entry): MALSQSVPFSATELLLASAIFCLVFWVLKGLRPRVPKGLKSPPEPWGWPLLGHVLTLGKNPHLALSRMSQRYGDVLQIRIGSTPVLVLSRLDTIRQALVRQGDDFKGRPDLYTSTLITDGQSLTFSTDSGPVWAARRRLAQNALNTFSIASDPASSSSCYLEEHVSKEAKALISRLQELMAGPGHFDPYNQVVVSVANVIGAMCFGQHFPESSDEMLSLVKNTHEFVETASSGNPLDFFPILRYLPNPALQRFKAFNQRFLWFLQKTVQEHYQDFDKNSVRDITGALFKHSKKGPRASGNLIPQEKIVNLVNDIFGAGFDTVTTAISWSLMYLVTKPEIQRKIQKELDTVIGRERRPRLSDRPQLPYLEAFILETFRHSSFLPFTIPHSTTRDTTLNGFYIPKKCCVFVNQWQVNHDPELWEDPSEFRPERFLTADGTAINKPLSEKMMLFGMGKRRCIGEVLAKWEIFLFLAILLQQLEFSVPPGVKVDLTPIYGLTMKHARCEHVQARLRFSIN

[7] = target: Cytochrome P450 3A4 (Homo sapiens, UniProt P08684);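 further: CYP3A4 tested as one member of a cytochrome P450 panel screen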
[8] = Luminescence Cell-Based Dose Confirmation to Identify Activators of 5'UTR Stem-Loop Driven Alpha-Synuclein mRNA Translation in H4 Neuroglioblastoma Cells. [Related pubchem assays: 1829 (Project Summary), 1814 (Primary HTS)]; format: functional
[9] = Luminescence Cell-Based Dose Response to Identify Activators of Luciferase Translation or Activity in H4-C Neuroglioblastoma Cells. [Related pubchem assays: 1829 (Project Summary), 1814 (Primary HTS)]; format: functional
[10] = Luminescence Cell-Based Dose Response HTS to Identify Activators of Luciferase Translation or Activity in H4 […] Cells. [Related pubchem assays: 1829 (Project Summary), 1814 (Primary HTS)]; format: functional
[11] = tested on: H4; test: Luminescence Cell-Based Dose Response HTS to Identify Activators of 5'UTR Stem-Loop Driven Prion Protein mRNA Translation in H4 Neuroglioblastoma Cells. [Related pubchem assays: 1829 (Project Summary), 1814 (Primary HTS)]; format: functional; conditions: Homo sapiens
[12] = Luminescence Cell-Based Dose Response to Identify Activators of 5'UTR Stem-Loop Driven Prion Protein mRNA Translation in H4-C Neuroglioblastoma Cells. [Related pubchem assays: 1829 (Project Summary), 1814 (Primary HTS)]; format: functional
[13] = Luminescence Cell-Based Dose Retest to Confirm Inhibitors of Cancer Stem Cells. [Related pubchem assays (depositor defined):AID2717, AID2721]; format: functional; conditions: Homo sapiens
[14] = M. tuberculosis growth inhibition, HTS (AID 449762); format: functional
[15] = target: Induced myeloid leukemia cell differentiation protein Mcl-1 (Homo sapiens, UniProt Q07820); format: functional
[16] = target: Large T antigen (Simian virus 40, UniProt P03070); format: functional, Betapolyomavirus macacae;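 further: Confirmatory-stage PubChem screen for compounds that inhibit SV40 T antigen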
[17] = target: Eukaryotic translation initiation factor 4E (Mus musculus, UniProt P63073); test: blockers of eIF4G binding by eIF4E – biochemical, TR-FRET, dose response (AID 855); format: functional;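 further: potency for disrupting eIF4E binding to eIF4GI seen as loss of FRET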
[18] = target: Bifunctional protein GlmU (Mycobacterium tuberculosis, UniProt P9WMN3); test: Inhibitors of Mycobacterial Glucosamine-1-phosphate acetyl transferase (GlmU). Secondary screen.; parameters: species or system Mycobacterium tuberculosis H37Rv
[19] = target: Caspase-6 (Homo sapiens, UniProt P55212); test: inhibition of CASP6 peptide cleavage – biochemical, VEID-R110 fluorescence, cherry-pick, dose response (AID 720632)
[20] = viability loss in HEK293 cells – cell-based, plate reader, cherry-picked samples, cytotoxicity control, dose response (AID 743446); format: functional
[21] = toxicity toward HepG2 liver cells – cell-based, plate reader, cherry-pick, antagonist series, cytotoxicity control, dose response (AID 743416); format: functional
[22] = A549 cell cytotoxicity, dose response, cytotoxicity control, plate reader, cherry-pick, antagonist series (AID 743412); format: functional, cell-based
[23] = target: RNA-editing ligase 1, mitochondrial (Trypanosoma brucei brucei, UniProt P86926); test: inhibition of trypanosome RNA editing ligase – biochemical, fluorescence, Trypanosoma brucei, dose response (AID 1117295); format: functional
[24] = target: T2, Microphthalmia-associated transcription factor (Homo sapiens, UniProt O75030); test: reducers of TRPM1 reporter luminescence, concentration series – cell-based, SK-MEL-5, cherry-picked, set 3, MITF inhibitor project, dose response (AID 493073); format: functional;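 further: SK-MEL-5 melanoma cells with luciferase driven by the MITF target TRPM1 promoter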
T2 sequence (O75030 whole entry): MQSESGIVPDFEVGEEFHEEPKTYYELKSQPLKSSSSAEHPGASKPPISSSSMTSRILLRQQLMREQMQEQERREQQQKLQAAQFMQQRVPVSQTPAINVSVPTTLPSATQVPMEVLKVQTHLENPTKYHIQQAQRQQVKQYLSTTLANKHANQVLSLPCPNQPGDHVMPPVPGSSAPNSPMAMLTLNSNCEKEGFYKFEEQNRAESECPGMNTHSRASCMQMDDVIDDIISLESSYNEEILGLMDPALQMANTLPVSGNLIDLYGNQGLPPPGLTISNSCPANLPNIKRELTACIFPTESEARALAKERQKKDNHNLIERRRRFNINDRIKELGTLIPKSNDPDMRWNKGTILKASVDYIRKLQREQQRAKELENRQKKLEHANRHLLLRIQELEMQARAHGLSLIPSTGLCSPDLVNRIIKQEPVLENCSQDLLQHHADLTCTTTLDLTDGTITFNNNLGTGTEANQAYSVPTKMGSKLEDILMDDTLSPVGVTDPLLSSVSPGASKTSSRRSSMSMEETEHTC

[25] = target: Mitogen-activated protein kinase 10 (Homo sapiens, UniProt P53779); test: Dose response biochemical screening assay for inhibitors of c-Jun N-Terminal Kinase 3 (JNK3). [Related pubchem assays: 746 ]
[26] = target: Cytochrome P450 2C9 (Homo sapiens, UniProt P11712)
[27] = Trypanosoma cruzi growth suppression in host cells – NIH3T3 host cells, beta-gal luminescence, confirmation (AID 2044); format: functional, cell-based;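 further: intracellular parasites grown in NIH/3T3 mouse fibroblasts as host cells; luminescent beta-galactosidase reporter signal from transgenic T. cruzi replicating inside host cells; inhibitors lower the luminescence signal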
[28] = target: T3, RNA-binding protein pos-1 (Caenorhabditis elegans, UniProt G5EF15); test: disruptors of C. elegans POS-1 RNA interaction – biochemical, fluorescence polarization, dose response (AID 1964);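 further: purified POS-1 fused to maltose binding protein made in E. coli; potency of compounds blocking POS-1 binding to fluorescent RNA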
T3 sequence (G5EF15 whole entry): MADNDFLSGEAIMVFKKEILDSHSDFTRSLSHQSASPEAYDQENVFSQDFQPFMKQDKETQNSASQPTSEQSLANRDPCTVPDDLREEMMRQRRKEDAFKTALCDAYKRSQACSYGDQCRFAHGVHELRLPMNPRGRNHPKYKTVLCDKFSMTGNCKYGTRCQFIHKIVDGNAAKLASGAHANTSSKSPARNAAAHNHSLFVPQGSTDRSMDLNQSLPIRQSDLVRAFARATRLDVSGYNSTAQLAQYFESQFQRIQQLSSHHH

[29] = target: T4, Heat shock factor protein 1 (Mus musculus, UniProt P38532); test: decrease of HSF1-responsive luciferase luminescence – cell-based, NIH3T3, dose retest, confirmation (AID 2382); format: functional;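 further: NIH3T3 fibroblasts with HSF1-driven luciferase reporter stressed by proteasome inhibitor MG132; luminescence from HSF1-driven luciferase expression after 8 hours of MG132 stress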
T4 sequence (P38532 whole entry): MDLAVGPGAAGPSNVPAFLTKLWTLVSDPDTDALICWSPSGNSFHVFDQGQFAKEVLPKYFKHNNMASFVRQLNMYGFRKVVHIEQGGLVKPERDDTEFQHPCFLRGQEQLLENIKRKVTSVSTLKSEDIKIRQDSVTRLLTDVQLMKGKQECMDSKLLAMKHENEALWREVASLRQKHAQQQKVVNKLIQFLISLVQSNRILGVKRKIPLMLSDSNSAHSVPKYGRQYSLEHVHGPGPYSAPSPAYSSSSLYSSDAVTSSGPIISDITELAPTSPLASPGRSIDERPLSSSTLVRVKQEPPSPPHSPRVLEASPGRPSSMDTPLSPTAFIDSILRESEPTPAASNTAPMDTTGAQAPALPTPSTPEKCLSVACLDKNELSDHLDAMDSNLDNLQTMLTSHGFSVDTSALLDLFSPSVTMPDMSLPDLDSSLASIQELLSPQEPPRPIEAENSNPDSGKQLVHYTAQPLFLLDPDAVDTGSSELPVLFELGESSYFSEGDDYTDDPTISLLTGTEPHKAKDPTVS

[30] = target: T5, Zinc finger protein mex-5 (Caenorhabditis elegans, UniProt Q9XUB2); test: potency of MEX-5 RNA-binding blockers – biochemical, C. elegans, fluorescence polarization, dose response (AID 1960)
T5 sequence (Q9XUB2 whole entry): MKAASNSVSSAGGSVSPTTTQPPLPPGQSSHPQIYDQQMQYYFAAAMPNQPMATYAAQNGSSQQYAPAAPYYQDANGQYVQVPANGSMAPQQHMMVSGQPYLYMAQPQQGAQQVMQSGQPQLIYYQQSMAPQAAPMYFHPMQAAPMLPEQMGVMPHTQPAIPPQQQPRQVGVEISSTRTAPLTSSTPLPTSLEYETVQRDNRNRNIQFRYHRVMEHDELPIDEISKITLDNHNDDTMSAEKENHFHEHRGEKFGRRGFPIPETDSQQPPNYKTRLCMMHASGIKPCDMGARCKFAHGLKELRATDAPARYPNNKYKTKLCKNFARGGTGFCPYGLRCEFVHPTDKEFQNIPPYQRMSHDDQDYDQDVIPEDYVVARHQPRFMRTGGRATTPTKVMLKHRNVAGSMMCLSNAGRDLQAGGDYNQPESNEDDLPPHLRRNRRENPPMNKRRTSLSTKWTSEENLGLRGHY

[31] = NIH3T3 cell viability loss – ATP luminescence, mouse fibroblasts, counter-screen, dose response (AID 2010); format: functional, cell-based;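 further: cells exposed to compound for about 90 hours before reading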
[32] = target: Ras and Rab interactor 1/Tyrosine-protein kinase ABL1 (Homo sapiens, UniProt P00519+Q13671); format: functional;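 further: biochemical TR-FRET dose-response test measuring inhibition of binding between Rin1 and Abl proteins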
[33] = target: Genome polyprotein (dengue virus type 2, UniProt P29990); test: flavivirus cap methylation enzyme inhibition – biochemical, confirmation dose response, primary screen (AID 588689); format: functional
Genome polyprotein, sequence (P29990 2492-3391 limits assumed): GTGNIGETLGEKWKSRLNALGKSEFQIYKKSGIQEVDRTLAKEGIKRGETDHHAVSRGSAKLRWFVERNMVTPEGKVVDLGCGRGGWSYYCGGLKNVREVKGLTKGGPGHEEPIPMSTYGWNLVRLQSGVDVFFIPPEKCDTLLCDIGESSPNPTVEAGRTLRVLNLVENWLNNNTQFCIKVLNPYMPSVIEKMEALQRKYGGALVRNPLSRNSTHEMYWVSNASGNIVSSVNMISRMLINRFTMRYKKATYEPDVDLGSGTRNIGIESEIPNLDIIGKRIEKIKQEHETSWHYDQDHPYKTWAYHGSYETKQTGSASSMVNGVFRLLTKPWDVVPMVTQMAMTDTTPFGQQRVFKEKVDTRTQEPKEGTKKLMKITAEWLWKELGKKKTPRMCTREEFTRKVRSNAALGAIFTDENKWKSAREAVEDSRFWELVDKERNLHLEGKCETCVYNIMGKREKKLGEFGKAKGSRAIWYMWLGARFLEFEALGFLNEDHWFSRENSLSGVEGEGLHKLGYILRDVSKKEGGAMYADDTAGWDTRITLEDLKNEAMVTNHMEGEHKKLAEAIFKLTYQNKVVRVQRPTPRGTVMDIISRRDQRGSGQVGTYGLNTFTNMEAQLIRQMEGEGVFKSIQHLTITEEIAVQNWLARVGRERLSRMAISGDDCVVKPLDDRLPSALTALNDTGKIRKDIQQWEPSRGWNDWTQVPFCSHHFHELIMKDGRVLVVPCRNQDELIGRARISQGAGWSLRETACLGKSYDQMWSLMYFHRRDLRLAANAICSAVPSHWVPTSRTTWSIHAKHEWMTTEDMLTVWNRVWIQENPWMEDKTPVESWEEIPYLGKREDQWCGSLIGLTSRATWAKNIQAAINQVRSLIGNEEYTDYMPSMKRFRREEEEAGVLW

Caspase-6, sequence (P55212 24-179 limits assumed): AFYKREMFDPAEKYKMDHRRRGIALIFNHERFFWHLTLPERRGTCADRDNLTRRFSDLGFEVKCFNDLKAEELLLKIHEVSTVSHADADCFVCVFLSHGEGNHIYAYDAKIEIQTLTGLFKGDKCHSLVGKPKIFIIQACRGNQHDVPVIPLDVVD
Caspase-6, sequence (P55212 194-293 limits assumed): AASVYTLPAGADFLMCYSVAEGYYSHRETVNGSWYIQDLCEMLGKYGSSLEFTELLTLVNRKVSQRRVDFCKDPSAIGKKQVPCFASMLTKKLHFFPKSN
Ephrin type-A receptor 4, sequence (Q03137 whole entry): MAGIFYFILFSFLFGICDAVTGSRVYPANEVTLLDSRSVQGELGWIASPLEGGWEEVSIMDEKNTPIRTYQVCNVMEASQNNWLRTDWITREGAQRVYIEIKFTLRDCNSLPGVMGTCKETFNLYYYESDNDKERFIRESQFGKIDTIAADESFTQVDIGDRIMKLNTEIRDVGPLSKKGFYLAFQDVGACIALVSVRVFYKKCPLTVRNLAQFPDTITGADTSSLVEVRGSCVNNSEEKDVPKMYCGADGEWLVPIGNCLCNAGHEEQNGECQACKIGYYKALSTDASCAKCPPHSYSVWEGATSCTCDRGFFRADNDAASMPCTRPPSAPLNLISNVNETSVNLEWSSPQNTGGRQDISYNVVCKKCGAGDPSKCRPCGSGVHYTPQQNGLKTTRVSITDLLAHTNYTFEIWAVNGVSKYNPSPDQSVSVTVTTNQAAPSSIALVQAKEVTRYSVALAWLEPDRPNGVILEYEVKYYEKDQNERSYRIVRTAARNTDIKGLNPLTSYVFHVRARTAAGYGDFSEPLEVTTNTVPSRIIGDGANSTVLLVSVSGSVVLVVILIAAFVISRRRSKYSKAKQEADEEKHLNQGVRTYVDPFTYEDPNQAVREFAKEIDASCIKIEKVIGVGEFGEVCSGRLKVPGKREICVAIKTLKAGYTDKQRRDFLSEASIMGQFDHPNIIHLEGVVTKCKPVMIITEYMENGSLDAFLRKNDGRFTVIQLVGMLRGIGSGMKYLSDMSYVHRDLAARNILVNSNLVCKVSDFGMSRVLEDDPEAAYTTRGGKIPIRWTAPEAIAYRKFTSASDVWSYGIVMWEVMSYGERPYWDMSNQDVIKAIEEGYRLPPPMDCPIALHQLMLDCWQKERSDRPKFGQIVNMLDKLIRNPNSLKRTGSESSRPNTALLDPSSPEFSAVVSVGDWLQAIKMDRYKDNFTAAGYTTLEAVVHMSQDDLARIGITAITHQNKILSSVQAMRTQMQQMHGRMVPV
Kallikrein-7, sequence (P49862 whole entry): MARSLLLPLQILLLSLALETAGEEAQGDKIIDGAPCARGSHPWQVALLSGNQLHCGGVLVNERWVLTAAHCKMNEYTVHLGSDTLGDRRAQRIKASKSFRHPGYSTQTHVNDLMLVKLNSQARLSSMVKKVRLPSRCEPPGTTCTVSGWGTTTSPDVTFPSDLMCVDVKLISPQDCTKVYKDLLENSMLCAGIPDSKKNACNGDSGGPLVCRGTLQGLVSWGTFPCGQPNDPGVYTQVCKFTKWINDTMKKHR
G-protein coupled receptor 183, sequence (P32249 whole entry): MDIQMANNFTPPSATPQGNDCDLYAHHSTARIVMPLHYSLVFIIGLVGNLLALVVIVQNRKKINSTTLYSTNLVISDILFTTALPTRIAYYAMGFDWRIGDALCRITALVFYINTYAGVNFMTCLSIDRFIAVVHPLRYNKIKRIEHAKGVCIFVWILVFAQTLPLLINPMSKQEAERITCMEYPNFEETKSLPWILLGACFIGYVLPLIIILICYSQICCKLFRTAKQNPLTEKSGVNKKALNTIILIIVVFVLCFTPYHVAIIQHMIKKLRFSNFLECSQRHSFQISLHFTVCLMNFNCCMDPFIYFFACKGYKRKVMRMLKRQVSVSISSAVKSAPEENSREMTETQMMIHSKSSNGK
Large T antigen, sequence (P03070 whole entry): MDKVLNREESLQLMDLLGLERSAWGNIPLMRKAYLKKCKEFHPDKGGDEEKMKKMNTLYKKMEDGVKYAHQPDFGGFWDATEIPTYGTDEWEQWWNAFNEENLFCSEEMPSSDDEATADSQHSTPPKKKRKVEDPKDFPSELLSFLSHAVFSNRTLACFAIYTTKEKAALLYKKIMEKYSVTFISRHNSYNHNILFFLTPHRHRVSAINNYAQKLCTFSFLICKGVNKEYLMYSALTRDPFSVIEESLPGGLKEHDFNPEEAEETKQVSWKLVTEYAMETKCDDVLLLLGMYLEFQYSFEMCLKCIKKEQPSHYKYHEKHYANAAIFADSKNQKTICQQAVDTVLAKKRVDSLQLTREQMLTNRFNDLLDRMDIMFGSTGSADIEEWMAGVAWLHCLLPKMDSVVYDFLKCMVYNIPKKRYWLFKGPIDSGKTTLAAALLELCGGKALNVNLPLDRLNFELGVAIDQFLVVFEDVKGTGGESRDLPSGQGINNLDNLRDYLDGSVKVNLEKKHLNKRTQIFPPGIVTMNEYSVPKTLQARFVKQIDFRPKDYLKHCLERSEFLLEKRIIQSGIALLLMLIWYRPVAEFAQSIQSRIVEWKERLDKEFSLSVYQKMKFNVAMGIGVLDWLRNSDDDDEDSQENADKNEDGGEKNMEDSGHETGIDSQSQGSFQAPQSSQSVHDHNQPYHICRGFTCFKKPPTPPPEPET
Mitogen-activated protein kinase 10, sequence (P53779 whole entry): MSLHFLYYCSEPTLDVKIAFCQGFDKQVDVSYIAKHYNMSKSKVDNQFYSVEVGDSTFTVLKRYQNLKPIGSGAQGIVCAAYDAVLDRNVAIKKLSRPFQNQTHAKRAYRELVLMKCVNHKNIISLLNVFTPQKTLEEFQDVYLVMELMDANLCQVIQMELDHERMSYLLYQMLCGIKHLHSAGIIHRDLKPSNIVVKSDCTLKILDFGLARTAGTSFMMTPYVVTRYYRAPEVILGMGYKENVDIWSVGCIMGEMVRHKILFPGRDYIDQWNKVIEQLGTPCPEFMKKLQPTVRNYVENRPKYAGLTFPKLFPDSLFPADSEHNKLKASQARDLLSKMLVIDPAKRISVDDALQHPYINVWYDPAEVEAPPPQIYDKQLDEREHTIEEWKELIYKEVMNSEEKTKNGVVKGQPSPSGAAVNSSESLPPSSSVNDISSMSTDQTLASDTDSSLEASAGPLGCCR
RNA-editing ligase 1, mitochondrial, sequence (P86926 whole entry): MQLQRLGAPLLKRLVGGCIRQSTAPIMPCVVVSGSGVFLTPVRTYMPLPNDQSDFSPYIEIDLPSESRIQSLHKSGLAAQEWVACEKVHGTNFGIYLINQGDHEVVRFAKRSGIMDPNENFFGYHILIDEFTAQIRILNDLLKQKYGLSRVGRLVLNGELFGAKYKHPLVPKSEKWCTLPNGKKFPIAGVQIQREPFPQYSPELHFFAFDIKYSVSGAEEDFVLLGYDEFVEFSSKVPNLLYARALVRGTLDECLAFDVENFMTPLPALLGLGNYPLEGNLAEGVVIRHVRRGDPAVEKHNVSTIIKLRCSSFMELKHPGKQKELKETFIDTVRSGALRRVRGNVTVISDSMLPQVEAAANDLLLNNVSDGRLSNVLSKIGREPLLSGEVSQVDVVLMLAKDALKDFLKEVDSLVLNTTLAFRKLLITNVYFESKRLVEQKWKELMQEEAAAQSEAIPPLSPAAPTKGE
Bifunctional protein GlmU, sequence (P9WMN3 whole entry): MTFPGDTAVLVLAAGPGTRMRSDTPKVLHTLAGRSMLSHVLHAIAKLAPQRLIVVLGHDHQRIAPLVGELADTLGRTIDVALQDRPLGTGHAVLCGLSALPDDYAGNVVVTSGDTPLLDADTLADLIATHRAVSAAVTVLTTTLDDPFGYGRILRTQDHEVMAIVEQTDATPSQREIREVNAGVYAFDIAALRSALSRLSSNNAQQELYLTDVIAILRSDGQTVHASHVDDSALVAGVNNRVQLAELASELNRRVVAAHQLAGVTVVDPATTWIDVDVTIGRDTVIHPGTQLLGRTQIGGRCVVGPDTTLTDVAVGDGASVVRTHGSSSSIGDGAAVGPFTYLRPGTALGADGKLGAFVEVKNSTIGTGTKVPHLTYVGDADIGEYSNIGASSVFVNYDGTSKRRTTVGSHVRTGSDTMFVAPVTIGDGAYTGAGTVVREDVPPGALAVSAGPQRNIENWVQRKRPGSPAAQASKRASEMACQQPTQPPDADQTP

OC[C@H]1[C@H](c2ccc(-c3cccc(F)c3)cc2)[C@@H]2CN(CCC(F)(F)F)CCCCN12
AC50 [1]: 0.53 µM (active)
AC50 [2]: 3.34 µM (active)

N#Cc1ccc(C(=O)N2CCN(C(=O)/C=C/c3ccc(Br)cc3)CC2)cc1
IC50 [3]: 0.00174 µM (active)

Cc1ccccc1NC(=O)COC(=O)COc1ccc2ccc(=O)oc2c1
EC50 [4]: 31.9 µM (inactive)

COc1cc(/C=C2\SC(=S)N(Nc3ccccc3)C2=O)cc(OC)c1OC
IC50 [5]: 2.64 µM (active)
AC50 [6]: 7.08 µM (inconclusive)
AC50 [7]: 15.8 µM (inconclusive)

O=c1cccccc1NN=C1CCCCCC1
EC50 [8]: 0.446 µM (active)
EC50 [9]: 0.385 µM (active)
EC50 [10]: < 0.1 µM (active)
EC50 [11]: > 120 µM (not active)
EC50 [12]: 0.608 µM (active)

O=C(O)CCC(=O)NN1C(=O)c2ccccc2NC1c1ccco1 (centres undefined)
EC50 [4]: > 69.5 µM (inactive)

CCCCCCSc1nsc(NC(=O)CC(C)C)n1
AC50 [13]: 2.02 µM (active)
IC50 [14]: > 100 µM (active)

O=C1C(=Cc2ccc(Br)o2)C(=O)c2ccccc21
IC50 [15]: 1.92 µM (active)
IC50 [16]: 93.7 µM (active)
IC50 [17]: 20.1 µM (active)
IC50 [18]: 18.5 µM (active)

Cc1nnc(N/N=C/c2cccc(C(F)(F)F)c2)n1N
AC50 [19]: 34.8 µM (active)

COc1cccc(C#Cc2ccc([C@@H]3[C@@H](CO)N(C(=O)C4CCC4)[C@H]3C#N)cc2)c1
AC50 [20]: 46.8 µM (active)
AC50 [21]: 26.8 µM (active)
AC50 [22]: 30.9 µM (active)

Nc1ccc2c(c1)Cc1ccccc1-2
IC50 [14]: > 100 µM (active)
IC50 [16]: 3.52 µM (active)

O=C(/C=C/c1ccc(F)cc1)N1CCN(S(=O)(=O)c2cccc(Br)c2)CC1
IC50 [3]: 0.0175 µM (active)

CC(C)C[C@H](NC1(C(=O)NC2CCCCC2)CCN(C)CC1)C(=O)NCC(c1ccccc1)c1ccccc1
IC50 [23]: > 96.6 µM (inactive)

O=C(Cn1ncc(Cl)c(Cl)c1=O)N1CCOCC1
AC50 [20]: 13.7 µM (active)
AC50 [21]: 34.4 µM (active)
AC50 [22]: 38 µM (active)
AC50 [24]: 9.82 µM (active)

Nc1nc(-c2ccccc2)cc(-c2ccccc2O)n1
IC50 [25]: 40.6 µM (not active)
AC50 [26]: 3.55 µM (inconclusive)

O=C(Nc1ccc(Cl)cc1)c1ccc(OCC2CCCO2)cc1 (centres undefined)
EC50 [8]: > 12 µM (not active)
EC50 [9]: 0.301 µM (active)
EC50 [12]: 0.924 µM (active)

N#Cc1c(N)nc(SCc2ccncc2)c(C#N)c1-c1cccs1
IC50 [25]: 54.8 µM (not active)
EC50 [27]: 0.145 µM (active)
EC50 [28]: > 300 µM (not active)
EC50 [29]: > 195 µM (not active)
EC50 [30]: > 300 µM (not active)
EC50 [31]: 17.1 µM (active)

CC(=O)Nc1ccc(NC2=Nc3ccccc3N3C2=Nc2c(c(C)nn2-c2ccccc2)C3c2ccccc2)cc1 (centres undefined)
IC50 [5]: 16.6 µM (active)

COC(=O)C1=C(C)N(Cc2ccccc2C(F)(F)F)C(NCc2ccc3c(c2)OCO3)=NC1c1ccccc1 (centres undefined)
IC50 [23]: > 96.6 µM (inactive)

Oc1ccc(/C=N/N2CCCCC2)c(O)c1O
EC50 [28]: 20.3 µM (active)
EC50 [30]: > 300 µM (inconclusive)
IC50 [32]: > 73.5 µM (inactive)
IC50 [33]: > 100 µM (active)
AC50 [19]: 24.2 µM (active)
